Values joined by “and” are separate entries in the source; they are usually repeats but may differ in a detail not shown here. Identical values can stand only once.
Tested on: 377384-186-R-J1-PDC complex spheroid viability
Test: Anticancer human tumor 377384-186-R-J1-PDC patient-derived pancreatic carcinoma cell line growth inhibition [CLK]
Conditions: for viability, T/C: stronger effect = lower value
In short: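 Patient-derived tumor cells grown as complex spheroids with HUVEC endothelial cells and mesenchymal stem cells, treated with drug combinations. Concentrations descend in half-log steps from near clinical Cmax, or from 10 microM if Cmax unknown.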

[1] = curve of first compound, second compound 0.0316 µM
[2] = curve of first compound, second compound 0.1 µM
[3] = curve of first compound, second compound 0.316 µM
[4] = curve of first compound, second compound 1 µM
[5] = curve of first compound, second compound 3.16 µM
[6] = curve of first compound, second compound 10 µM
[7] = second compound 0.0316 µM, first compound 0.0316 µM
[8] = second compound 0.0316 µM, first compound 0.1 µM
[9] = second compound 0.0316 µM, first compound 0.316 µM
[10] = second compound 0.0316 µM, first compound 1 µM
[11] = second compound 0.0316 µM, first compound 3.16 µM
[12] = second compound 0.0316 µM, first compound 10 µM
[13] = second compound 0.1 µM, first compound 0.0316 µM
[14] = second compound 0.1 µM, first compound 0.1 µM
[15] = second compound 0.1 µM, first compound 0.316 µM
[16] = second compound 0.1 µM, first compound 1 µM
[17] = second compound 0.1 µM, first compound 3.16 µM
[18] = second compound 0.1 µM, first compound 10 µM
[19] = second compound 0.316 µM, first compound 0.0316 µM
[20] = second compound 0.316 µM, first compound 0.1 µM
[21] = second compound 0.316 µM, first compound 0.316 µM
[22] = second compound 0.316 µM, first compound 1 µM
[23] = second compound 0.316 µM, first compound 3.16 µM
[24] = second compound 0.316 µM, first compound 10 µM
[25] = second compound 1 µM, first compound 0.0316 µM
[26] = second compound 1 µM, first compound 0.1 µM
[27] = second compound 1 µM, first compound 0.316 µM
[28] = second compound 1 µM, first compound 1 µM
[29] = second compound 1 µM, first compound 3.16 µM
[30] = second compound 1 µM, first compound 10 µM
[31] = second compound 3.16 µM, first compound 0.0316 µM
[32] = second compound 3.16 µM, first compound 0.1 µM
[33] = second compound 3.16 µM, first compound 0.316 µM
[34] = second compound 3.16 µM, first compound 1 µM
[35] = second compound 3.16 µM, first compound 3.16 µM
[36] = second compound 3.16 µM, first compound 10 µM
[37] = second compound 10 µM, first compound 0.0316 µM
[38] = second compound 10 µM, first compound 0.1 µM
[39] = second compound 10 µM, first compound 0.316 µM
[40] = second compound 10 µM, first compound 1 µM
[41] = second compound 10 µM, first compound 3.16 µM
[42] = second compound 10 µM, first compound 10 µM
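Also: spheroids exposed to agents for 7 days before reading.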
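For viability, T/C in this document: luminescence signal used as a stand-in for viable cells.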

SMILES: C#Cc1c(F)ccc2cc(O)cc(-c3ncc4c(N5CC6CCC(C5)N6)nc(OCC56CCCN5CC(F)C6)nc4c3F)c12 (stereo not drawn) + CN1CCN(c2cc(C(=O)Nc3cc4cc(-c5cnn(C)c5)ccc4cn3)ccn2)CC1
- IC50 [1]: < 31.6 nM
- IC50 [2]: < 31.6 nM
- IC50 [3]: < 31.6 nM
- IC50 [4]: < 31.6 nM
- IC50 [5]: < 31.6 nM
- IC50 [6]: < 31.6 nM
- viability, T/C [7]: 23.7%
- viability, T/C [8]: 9.22%
- viability, T/C [9]: 5.47%
- viability, T/C [10]: 3.59%
- viability, T/C [11]: 1.91%
- viability, T/C [12]: 2.78%
- viability, T/C [13]: 17.5%
- viability, T/C [14]: 9.27%
- viability, T/C [15]: 3.82%
- viability, T/C [16]: 2.55%
- viability, T/C [17]: 1.86%
- viability, T/C [18]: 1.3%
- viability, T/C [19]: 6.63%
- viability, T/C [20]: 2.9%
- viability, T/C [21]: 2.56%
- viability, T/C [22]: 1.32%
- viability, T/C [23]: 1.33%
- viability, T/C [24]: 0.82%
- viability, T/C [25]: 0.45%
- viability, T/C [26]: 0.37%
- viability, T/C [27]: 0.27%
- viability, T/C [28]: 0.32%
- viability, T/C [29]: 0.34%
- viability, T/C [30]: 0.4%
- viability, T/C [31]: 0.26%
- viability, T/C [32]: 0.6%
- viability, T/C [33]: 0.24%
- viability, T/C [34]: 0.33%
- viability, T/C [35]: 0.38%
- viability, T/C [36]: 0.56%
- viability, T/C [37]: 0.1%
- viability, T/C [38]: 0.21%
- viability, T/C [39]: 0.19%
- viability, T/C [40]: 0.33%
- viability, T/C [41]: 0.22%
- viability, T/C [42]: 0.49%

SMILES: C=C(F)C(=O)N1CCN(c2nc(OCC3CCCN3C)nc3c2CCN(c2cccc4cccc(Cl)c24)C3)CC1CC#N (stereo not drawn) + CN1CCN(c2cc(C(=O)Nc3cc4cc(-c5cnn(C)c5)ccc4cn3)ccn2)CC1
- IC50 [1]: 1890 nM
- IC50 [2]: 1630 nM
- IC50 [3]: < 31.6 nM
- IC50 [4]: < 31.6 nM
- IC50 [5]: < 31.6 nM
- IC50 [6]: < 31.6 nM
- viability, T/C [7]: 96.6%
- viability, T/C [8]: 97.2%
- viability, T/C [9]: 91.7%
- viability, T/C [10]: 83.5%
- viability, T/C [11]: 23.2%
- viability, T/C [12]: 0.18%
- viability, T/C [13]: 94.1%
- viability, T/C [14]: 101%
- viability, T/C [15]: 81.4%
- viability, T/C [16]: 72.5%
- viability, T/C [17]: 22.4%
- viability, T/C [18]: 0.15%
- viability, T/C [19]: 30.5%
- viability, T/C [20]: 32.5%
- viability, T/C [21]: 30.3%
- viability, T/C [22]: 23.9%
- viability, T/C [23]: 17.9%
- viability, T/C [24]: 0.31%
- viability, T/C [25]: 1.57%
- viability, T/C [26]: 1.56%
- viability, T/C [27]: 2.02%
- viability, T/C [28]: 1.49%
- viability, T/C [29]: 1.66%
- viability, T/C [30]: 0.44%
- viability, T/C [31]: 0.52%
- viability, T/C [32]: 0.83%
- viability, T/C [33]: 0.4%
- viability, T/C [34]: 0.56%
- viability, T/C [35]: 0.32%
- viability, T/C [36]: 0.34%
- viability, T/C [37]: 0.6%
- viability, T/C [38]: 0.4%
- viability, T/C [39]: 0.42%
- viability, T/C [40]: 0.45%
- viability, T/C [41]: 0.17%
- viability, T/C [42]: 0.19%

SMILES: CCCS(=O)(=O)Nc1ccc(F)c(C(=O)c2c[nH]c3ncc(-c4ccc(Cl)cc4)cc23)c1F
- viability, T/C (compound 0.0316 µM): 94.9% and 92.5%
- viability, T/C (compound 0.1 µM): 86% and 102%
- viability, T/C (compound 0.316 µM): 120% and 114%
- viability, T/C (compound 1 µM): 126% and 124%
- viability, T/C (compound 3.16 µM): 114% and 105%
- viability, T/C (compound 10 µM): 59.8% and 57.9%
- IC50 (curve of compound): > 10000 nM

SMILES: NC(=O)C(=Cn1cnc(-c2cc(C(F)(F)F)cc(C(F)(F)F)c2)n1)c1cncnc1 + CN1CCN(c2cc(C(=O)Nc3cc4cc(-c5cnn(C)c5)ccc4cn3)ccn2)CC1
- IC50 [1]: 99.6 nM
- IC50 [2]: 50.5 nM
- IC50 [3]: < 9.49 nM
- IC50 [4]: < 9.49 nM
- IC50 [5]: < 9.49 nM
- IC50 [6]: < 9.49 nM
- viability, T/C (second compound 0.0316 µM, first compound 0.00949 µM): 81.1%
- viability, T/C (second compound 0.0316 µM, first compound 0.03 µM): 76%
- viability, T/C (second compound 0.0316 µM, first compound 0.0949 µM): 50.1%
- viability, T/C (second compound 0.0316 µM, first compound 0.3 µM): 21.7%
- viability, T/C (second compound 0.0316 µM, first compound 0.949 µM): 5.88%
- viability, T/C (second compound 0.0316 µM, first compound 3 µM): 2%
- viability, T/C (second compound 0.1 µM, first compound 0.00949 µM): 87.6%
- viability, T/C (second compound 0.1 µM, first compound 0.03 µM): 63.4%
- viability, T/C (second compound 0.1 µM, first compound 0.0949 µM): 33.6%
- viability, T/C (second compound 0.1 µM, first compound 0.3 µM): 14.3%
- viability, T/C (second compound 0.1 µM, first compound 0.949 µM): 3.11%
- viability, T/C (second compound 0.1 µM, first compound 3 µM): 1.52%
- viability, T/C (second compound 0.316 µM, first compound 0.00949 µM): 21.2%
- viability, T/C (second compound 0.316 µM, first compound 0.03 µM): 15%
- viability, T/C (second compound 0.316 µM, first compound 0.0949 µM): 8.59%
- viability, T/C (second compound 0.316 µM, first compound 0.3 µM): 1.27%
- viability, T/C (second compound 0.316 µM, first compound 0.949 µM): 1.18%
- viability, T/C (second compound 0.316 µM, first compound 3 µM): 2%
- viability, T/C (second compound 1 µM, first compound 0.00949 µM): 0.39%
- viability, T/C (second compound 1 µM, first compound 0.03 µM): 0.58%
- viability, T/C (second compound 1 µM, first compound 0.0949 µM): 1.29%
- viability, T/C (second compound 1 µM, first compound 0.3 µM): 1.21%
- viability, T/C (second compound 1 µM, first compound 0.949 µM): 2.26%
- viability, T/C (second compound 1 µM, first compound 3 µM): 2.39%
- viability, T/C (second compound 3.16 µM, first compound 0.00949 µM): 0.7%
- viability, T/C (second compound 3.16 µM, first compound 0.03 µM): 1.97%
- viability, T/C (second compound 3.16 µM, first compound 0.0949 µM): 1.72%
- viability, T/C (second compound 3.16 µM, first compound 0.3 µM): 1.71%
- viability, T/C (second compound 3.16 µM, first compound 0.949 µM): 1.82%
- viability, T/C (second compound 3.16 µM, first compound 3 µM): 2.81%
- viability, T/C (second compound 10 µM, first compound 0.00949 µM): 0.61%
- viability, T/C (second compound 10 µM, first compound 0.03 µM): 0.97%
- viability, T/C (second compound 10 µM, first compound 0.0949 µM): 1.5%
- viability, T/C (second compound 10 µM, first compound 0.3 µM): 0.79%
- viability, T/C (second compound 10 µM, first compound 0.949 µM): 0.88%
- viability, T/C (second compound 10 µM, first compound 3 µM): 0.91%
